#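 Tested at 5 concentrations; 48 h exposure; 96-well plates; endpoints linearly interpolated, else capped at highest concentration. Definition used: TGI = concentration required for complete inhibition of growth.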
# Experiments:
# Test in all cases: DTP human tumour cell line panel, 48 h
# [1] = system: COLO 205 colon
# [2] = system: HCT-15 colon
# [3] = system: KM12 colon
# [4] = system: ACHN renal
# [5] = system: 786-0 renal
# [6] = system: MDA-N
# [7] = system: HOP-62 NSCLC
# [8] = system: SF-539 CNS
# [9] = system: SK-MEL-5 melanoma
# [10] = system: NCI-H460 lung
# [11] = system: NCI-H522 lung
# [12] = system: SR leukemia
# [13] = system: K-562 leukemia
# [14] = system: MDA-MB-435
# [15] = system: HT29 colon
# [16] = system: A549 NSCLC
# [17] = system: HCT-116 colon
# [18] = system: LOX IMVI melanoma
# [19] = system: HOP-92 NSCLC
# [20] = system: HCC-2998 colon
# [21] = system: SW-620 colon
# [22] = system: CCRF-CEM leukemia
# [23] = system: SN12C renal
# [24] = system: SNB-19 CNS
# [25] = system: NCI/ADR-RES ovarian
# [26] = system: MDA-MB-231 breast
# [27] = system: SK-OV-3 ovarian
# [28] = system: OVCAR-4 ovarian
# [29] = system: MOLT-4 leukemia
# [30] = system: CAKI-1 renal
# [31] = system: OVCAR-5 ovarian
# [32] = system: T-47D breast
# [33] = system: SK-MEL-2 melanoma
# [34] = system: MALME-3M melanoma
# [35] = system: NCI-H226 lung
# [36] = system: SK-MEL-28 melanoma
# [37] = system: OVCAR-8 ovarian
# [38] = system: RXF 393 renal
# [39] = system: OVCAR-3 ovarian
# [40] = system: PC-3 prostate
# [41] = system: UACC-257 melanoma
# [42] = system: A498 renal
# [43] = system: MCF7 breast
# [44] = system: M14 melanoma
# [45] = system: HL-60(TB) leukemia
# [46] = system: SNB-75 CNS
# [47] = system: DU-145 prostate
# [48] = system: UO-31 renal
# [49] = system: EKVX NSCLC
# [50] = system: NCI-H23 lung
# [51] = system: U251 CNS
# [52] = system: SF-295 CNS
# [53] = system: UACC-62 melanoma
# [54] = system: SF-268 CNS
# [55] = system: IGROV1 ovarian
smiles,measurement,setting,value
CCOC(=O)c1ccc(NCc2ccc3oc(=O)c(-c4ccccc4)nc3c2)cc1,TGI,[1],62.6 µM
same,TGI,[2],> 100 µM
same,TGI,[3],> 100 µM
same,TGI,[4],> 100 µM
same,TGI,[5],> 100 µM
same,TGI,[6],50.8 µM
same,TGI,[7],> 100 µM
same,TGI,[8],> 100 µM
same,TGI,[9],45.2 µM
same,TGI,[10],> 100 µM
same,TGI,[11],32.1 µM
same,TGI,[12],> 100 µM
same,TGI,[13],85.8 µM
same,TGI,[14],32.7 µM
same,TGI,[15],> 100 µM
same,TGI,[16],> 100 µM
same,TGI,[17],80.3 µM
same,TGI,[18],> 100 µM
same,TGI,[19],83 µM
same,TGI,[20],> 100 µM
same,TGI,[21],50.4 µM
same,TGI,[22],22.6 µM
same,TGI,[23],> 100 µM
same,TGI,[24],> 100 µM
same,TGI,[25],> 100 µM
same,TGI,[26],> 100 µM
same,TGI,[27],> 100 µM
same,TGI,[28],54.1 µM
same,TGI,[29],60.4 µM
same,TGI,[30],52.5 µM
same,TGI,[31],> 100 µM
same,TGI,[32],34.1 µM
same,TGI,[33],> 100 µM
same,TGI,[34],38.8 µM
same,TGI,[35],> 100 µM
same,TGI,[36],87.3 µM
same,TGI,[37],65 µM
same,TGI,[38],87.4 µM
same,TGI,[39],90.5 µM
same,TGI,[40],> 100 µM
same,TGI,[41],42 µM
same,TGI,[42],> 100 µM
same,TGI,[43],38 µM
same,TGI,[44],> 100 µM
same,TGI,[45],13.2 µM
same,TGI,[46],> 100 µM
same,TGI,[47],> 100 µM
same,TGI,[48],> 100 µM
same,TGI,[49],> 100 µM
same,TGI,[50],44.5 µM
same,TGI,[51],> 100 µM
same,TGI,[52],> 100 µM
same,TGI,[53],> 100 µM
same,TGI,[54],> 100 µM
same,TGI,[55],> 100 µM
